System: yeast genes (expressed mRNA)
Test: DNA chip measurement of expressed mRNA of yeast genes after culture with a toxic chemical substance
Type: cell-based, Saccharomyces cerevisiae S288C
Conditions: for level of expressed mRNA in the presence of chemical substance / level in the absence of chemical substance: cultured two hours with the chemical substance; for The level of expressed mRNA in the presence of chemical substance/The level of expressed mRNA in the absence of chemical substance: cultured two hours with substance
Method: Yeast (Saccharomyces cerevisiae S288C (a SUC2mal mel gap2 CUP1)) were cultured at 25° C. on YPD medium (yeast extract 1%, polypeptone 2%, glucose 2%). One of toxic chemical substances was added to the cell at logarithmic growth phase, and the cell was further cultured for two hours. Cell was cultured without any chemical substance in the same condition, and was used as a control. Concentrations of the chemical substances were defined to inhibit the growth of the yeast but not lead to death.
After the completion of cultivation, the culture was centrifuged to collect the cells. To the cells, sodium acetate buffer (50 mM sodium acetate, 10 mM EDTA, 1% SDS) was added, and the mixture was shaken at 65° C. for five minutes, followed by returning to room temperature, and obtaining the supernatant, which procedure was repeated two times. To the supernatant, ½ amount of a solution of phenol/chloroform (1:1) was added, and the mixture was centrifuged to give a supernatant, an equal amount of chloroform was added, and the mixture was centrifuged to give a supernatant. To the supernatant, an equal amount of isopropanol containing 0.3 M sodium acetate was added, and the mixture was allowed to stand at room temperature for 30 minutes, after which the mixture was centrifuged to give sediment of the whole RNAs. Seventy % ethanol was added to the sediment, and the mixture was again centrifuged to give sediment, which was then dried and dissolved in water. mRNA was isolated from the whole RNAs as followings. In view of the fact that a poly A chain is attached to the 3′ terminus of mRNA, a polynucleotide having a poly T structure which was immobilized on the surface of latex beads was used to trap the mRNA, and then the mRNA was washed and eluted with spine column (Oligotex-dT30<Super>mRNA Purification Kit, Takara). Reverse transcription of the mRNA was conducted with a reverse transcriptase (Super Script II Reverse Transcriptase; catalogue No. 18064-014, GibcoBRL) using fluorescence-labeled nucleotides to give cDNAs that were introduced with Cy3-dUTP or Cy5-dUTP during the reverse transcription.
The labeled cDNAs were dissolved in TE buffer (10 mM Tris-HCl/1 mM EDTA, pH 8.0), and the solution was dropped on the DNA chip containing the whole genes of yeast (DNA Chip Research Inc. Japan) so that the cDNAs were hybridized on the DNA chip at 65° C. for over 12 hours. The fluoresces intensity of the DNA chip was read with a scanner, and the ratio relative to the fluorescence intensity resulting from the absence of chemical substance was estimated as the following, which is shown in Tables 1 to 9.
In the Tables, “Intensity” indicated in the rightmost column is a value of the level of expressed mRNA of each gene in control cells as divided by the average level of the expressions of the whole genes. A gene of which mRNA level is lower in control, and is higher in cases of addition of chemical substance, is especially useful in the detection of toxic substances.
Here, when a ratio of an amount of mRNA expressed in the presence of the chemical substance to an amount of mRNA expressed in the absence of the chemical substance is two or more, then it is considered significant.

Compound: [Cl][Pb][Cl] [(4), PbCl2]
- The level of expressed mRNA in the presence of chemical substance/The level of expressed mRNA in the absence of chemical substance, yeast gene YBR036C (gene YBR036C, Metabolism protein genes, DNA chip fluorescence ratio): 1.2
- The level of expressed mRNA in the presence of chemical substance/The level of expressed mRNA in the absence of chemical substance, yeast gene YBR298C (gene YBR298C, Metabolism protein genes, DNA chip fluorescence ratio): 2.3
- The level of expressed mRNA in the presence of chemical substance/The level of expressed mRNA in the absence of chemical substance, yeast gene YDL067C (gene YDL067C (mitochondria-located protein gene), yeast cultured two hours with chemical substance, DNA chip fluorescence ratio to control): 1.3
- The level of expressed mRNA in the presence of chemical substance/The level of expressed mRNA in the absence of chemical substance, yeast gene YDL078C (gene YDL078C, Metabolism protein genes, DNA chip fluorescence ratio): 0.8
- The level of expressed mRNA in the presence of chemical substance/The level of expressed mRNA in the absence of chemical substance, yeast gene YDL215C (gene YDL215C, Metabolism protein genes, DNA chip fluorescence ratio): 1.6
- The level of expressed mRNA in the presence of chemical substance/The level of expressed mRNA in the absence of chemical substance, yeast gene YDR079W (gene YDR079W (mitochondria-located protein gene), yeast cultured two hours with chemical substance, DNA chip fluorescence ratio to control): 1.1
- The level of expressed mRNA in the presence of chemical substance/The level of expressed mRNA in the absence of chemical substance, yeast gene YDR297W (gene YDR297W, Metabolism protein genes, DNA chip fluorescence ratio): 1.1
- The level of expressed mRNA in the presence of chemical substance/The level of expressed mRNA in the absence of chemical substance, yeast gene YDR387C (gene YDR387C, Metabolism protein genes, DNA chip fluorescence ratio): 2.2
- The level of expressed mRNA in the presence of chemical substance/The level of expressed mRNA in the absence of chemical substance, yeast gene YGL035C (gene YGL035C, Metabolism protein genes, DNA chip fluorescence ratio): 1.4
- The level of expressed mRNA in the presence of chemical substance/The level of expressed mRNA in the absence of chemical substance, yeast gene YGR062C (gene YGR062C (mitochondria-located protein gene), yeast cultured two hours with chemical substance, DNA chip fluorescence ratio to control): 1.4
- The level of expressed mRNA in the presence of chemical substance/The level of expressed mRNA in the absence of chemical substance, yeast gene YGR287C (gene YGR287C, Metabolism protein genes, DNA chip fluorescence ratio): 1.5
- The level of expressed mRNA in the presence of chemical substance/The level of expressed mRNA in the absence of chemical substance, yeast gene YJL070C (gene YJL070C, Metabolism protein genes, DNA chip fluorescence ratio): 1.2
- The level of expressed mRNA in the presence of chemical substance/The level of expressed mRNA in the absence of chemical substance, yeast gene YJL096W (gene YJL096W (mitochondria-located protein gene), yeast cultured two hours with chemical substance, DNA chip fluorescence ratio to control): 1.3
- The level of expressed mRNA in the presence of chemical substance/The level of expressed mRNA in the absence of chemical substance, yeast gene YJL180C (gene YJL180C (mitochondria-located protein gene), yeast cultured two hours with chemical substance, DNA chip fluorescence ratio to control): 1.3
- The level of expressed mRNA in the presence of chemical substance/The level of expressed mRNA in the absence of chemical substance, yeast gene YKR009C (gene YKR009C, Metabolism protein genes, DNA chip fluorescence ratio): 0.9
- The level of expressed mRNA in the presence of chemical substance/The level of expressed mRNA in the absence of chemical substance, yeast gene YLR295C (gene YLR295C (mitochondria-located protein gene), yeast cultured two hours with chemical substance, DNA chip fluorescence ratio to control): 1.7
- The level of expressed mRNA in the presence of chemical substance/The level of expressed mRNA in the absence of chemical substance, yeast gene YLR351C (gene YLR351C, Metabolism protein genes, DNA chip fluorescence ratio): 1.5
- The level of expressed mRNA in the presence of chemical substance/The level of expressed mRNA in the absence of chemical substance, yeast gene YLR375W (gene YLR375W, Metabolism protein genes, DNA chip fluorescence ratio): 0.9
- The level of expressed mRNA in the presence of chemical substance/The level of expressed mRNA in the absence of chemical substance, yeast gene YMR023C (gene YMR023C (mitochondria-located protein gene), yeast cultured two hours with chemical substance, DNA chip fluorescence ratio to control): 1.9
- The level of expressed mRNA in the presence of chemical substance/The level of expressed mRNA in the absence of chemical substance, yeast gene YMR267W (gene YMR267W (mitochondria-located protein gene), yeast cultured two hours with chemical substance, DNA chip fluorescence ratio to control): 0.9
- The level of expressed mRNA in the presence of chemical substance/The level of expressed mRNA in the absence of chemical substance, yeast gene YMR267W (gene YMR267W, Metabolism protein genes, DNA chip fluorescence ratio): 0.9
- The level of expressed mRNA in the presence of chemical substance/The level of expressed mRNA in the absence of chemical substance, yeast gene YMR278W (gene YMR278W, Metabolism protein genes, DNA chip fluorescence ratio): 1.0
- The level of expressed mRNA in the presence of chemical substance/The level of expressed mRNA in the absence of chemical substance, yeast gene YMR293C (gene YMR293C, Metabolism protein genes, DNA chip fluorescence ratio): 2.2
- The level of expressed mRNA in the presence of chemical substance/The level of expressed mRNA in the absence of chemical substance, yeast gene YNL073W (gene YNL073W (mitochondria-located protein gene), yeast cultured two hours with chemical substance, DNA chip fluorescence ratio to control): 1.7
- The level of expressed mRNA in the presence of chemical substance/The level of expressed mRNA in the absence of chemical substance, yeast gene YNR072W (gene YNR072W, Metabolism protein genes, DNA chip fluorescence ratio): 0.7
- The level of expressed mRNA in the presence of chemical substance/The level of expressed mRNA in the absence of chemical substance, yeast gene YOL096C (gene YOL096C, Metabolism protein genes, DNA chip fluorescence ratio): 1.6
- The level of expressed mRNA in the presence of chemical substance/The level of expressed mRNA in the absence of chemical substance, yeast gene YOR180C (gene YOR180C, Metabolism protein genes, DNA chip fluorescence ratio): 1.0
- The level of expressed mRNA in the presence of chemical substance/The level of expressed mRNA in the absence of chemical substance, yeast gene YOR316C (gene YOR316C (mitochondria-located protein gene), yeast cultured two hours with chemical substance, DNA chip fluorescence ratio to control): 1.5
- The level of expressed mRNA in the presence of chemical substance/The level of expressed mRNA in the absence of chemical substance, yeast gene YOR363C (gene YOR363C, Metabolism protein genes, DNA chip fluorescence ratio): 1.3
- The level of expressed mRNA in the presence of chemical substance/The level of expressed mRNA in the absence of chemical substance, yeast gene YPL040C (gene YPL040C (mitochondria-located protein gene), yeast cultured two hours with chemical substance, DNA chip fluorescence ratio to control): 1.7
- The level of expressed mRNA in the presence of chemical substance/The level of expressed mRNA in the absence of chemical substance, yeast gene YPL134C (gene YPL134C (mitochondria-located protein gene), yeast cultured two hours with chemical substance, DNA chip fluorescence ratio to control): 1.6
- The level of expressed mRNA in the presence of chemical substance/The level of expressed mRNA in the absence of chemical substance, yeast gene YPR184W (gene YPR184W, Metabolism protein genes, DNA chip fluorescence ratio): 2.2
- level of expressed mRNA in the presence of chemical substance / level in the absence of chemical substance (yeast gene YAL018C): 11.3
- The level of expressed mRNA in the presence of chemical substance/The level of expressed mRNA in the absence of chemical substance (yeast gene YAL053W): 2.1
- level of expressed mRNA in the presence of chemical substance / level in the absence of chemical substance (yeast gene YAR047C): 0.7
- level of expressed mRNA in the presence of chemical substance / level in the absence of chemical substance (yeast gene YAR064W): 2.8
- level of expressed mRNA in the presence of chemical substance / level in the absence of chemical substance (yeast gene YBL044W): 0.8
- The level of expressed mRNA in the presence of chemical substance/The level of expressed mRNA in the absence of chemical substance (yeast gene YBL048W): 2.8
- The level of expressed mRNA in the presence of chemical substance/The level of expressed mRNA in the absence of chemical substance (yeast gene YBL107C): 1.5
- level of expressed mRNA in the presence of chemical substance / level in the absence of chemical substance (yeast gene YBR012C): 0.8
- level of expressed mRNA in the presence of chemical substance / level in the absence of chemical substance (yeast gene YBR066C): 1.6
- level of expressed mRNA in the presence of chemical substance / level in the absence of chemical substance (yeast gene YBR124W): 0.4
- level of expressed mRNA in the presence of chemical substance / level in the absence of chemical substance (yeast gene YBR162C): 0.8
- level of expressed mRNA in the presence of chemical substance / level in the absence of chemical substance (yeast gene YBR287W): 2.4
- level of expressed mRNA in the presence of chemical substance / level in the absence of chemical substance (yeast gene YCL056C): 1.0
- level of expressed mRNA in the presence of chemical substance / level in the absence of chemical substance (yeast gene YCR007C): 2.9
- level of expressed mRNA in the presence of chemical substance / level in the absence of chemical substance (yeast gene YDL046W): 1.3
- The level of expressed mRNA in the presence of chemical substance/The level of expressed mRNA in the absence of chemical substance (yeast gene YDL072C): 2.1
- The level of expressed mRNA in the presence of chemical substance/The level of expressed mRNA in the absence of chemical substance (yeast gene YDL204W): 3.4
- The level of expressed mRNA in the presence of chemical substance/The level of expressed mRNA in the absence of chemical substance (yeast gene YDL222C): 3.9
- level of expressed mRNA in the presence of chemical substance / level in the absence of chemical substance (yeast gene YDR090C): 1.2
- level of expressed mRNA in the presence of chemical substance / level in the absence of chemical substance (yeast gene YDR128W): 0.9
